Measured values taken from patent US9359344B2, “Biaryl heterocycle substituted oxazolidinone antibacterial agents” (Xuanzhu Pharma Co., Ltd., priority 2011, dated 2016).

Tests used:
[1] = tested on: methicillin-sensitive Staphylococcus aureus (MSSE); assay: In vitro antibacterial activity, standard agar dilution method, MSSE; type: cell-based, Staphylococcus epidermidis; details: clinical strains
Text: (§1) Strains for test: methicillin-resistant Staphylococcus aureus (MRSA), methicillin-sensitive Staphylococcus aureus (MSSA), methicillin-resistant Staphylococcus epidermidis (MRSE), methicillin-sensitive Staphylococcus […] (MSSE), Enterococcus faecium, Enterococcus faecalis, streptococcus pneumoniae. Obtained from: Qianfoshan Hospital, First People's Hospital of Yunnan Province, Renji Hospital of Shanghai, People's Hospital of Jilin Province, Southwest Hospital.
(§2) Compounds 1, 3, 4, 6, 8, 11 of the present invention, prepared according to the process in each of the examples.
(§3) Control pharmaceutical: linezolid.
(§4) standard agar dilution method, reference was made to National Committee for Clinical Laboratory Standards. 2006. Methods for Dilution Antimicrobial Susceptibility Tests for Bacteria That Grow Aerobically, Approved Standard—Seventh Edition M7-A7.

[2] = tested on: methicillin-resistant Staphylococcus aureus (MRSA); assay: In vitro antibacterial activity, standard agar dilution method, MRSA; type: cell-based; details: clinical strains
Text: as §1, §2, §3, §4

streptococcus pneumoniae = assay: In vitro antibacterial activity, standard agar dilution method, Streptococcus pneumoniae; type: cell-based; details: clinical strains
Text: as §1, §2, §3, §4

Enterococcus faecalis = assay: In vitro antibacterial activity, standard agar dilution method, Enterococcus faecalis; type: cell-based; details: clinical strains
Text: as §1, §2, §3, §4

[3] = tested on: methicillin-resistant Staphylococcus epidermidis (MRSE); assay: In vitro antibacterial activity, standard agar dilution method, MRSE; type: cell-based; details: clinical strains
Text: as §1, §2, §3, §4

[4] = tested on: methicillin-sensitive Staphylococcus aureus (MSSA); assay: In vitro antibacterial activity, standard agar dilution method, MSSA; type: cell-based; details: clinical strains
Text: as §1, §2, §3, §4

Enterococcus faecium = assay: In vitro antibacterial activity, standard agar dilution method, Enterococcus faecium; type: cell-based; details: clinical strains
Text: as §1, §2, §3, §4

[5] = tested on: methicillin-sensitive (MSSE); assay: In vitro antibacterial activity, standard agar dilution method, MSSE; type: cell-based, Staphylococcus epidermidis; details: clinical strains
Text: as §1, §2, §3, §4

[6] = In vivo pharmacokinetics test on rat, P.O (lavage); details: plasma, po, male SD rat, Compound 3 itself detected
Procedure: (§5) Compounds 2, 3, 5, 7, 9, prepared by the processes in the examples, dissolved in physiological saline.
(§6) Administration is performed as described in the table below, fasting without water deprivation for 16 hours before administration, providing food 4 hours after the administration.
P.O representing administration by lavage
(§7) I.V: blood collection was carried out according to the time points in the table below. At each time point about 100 μl whole blood was collected into a heparin sodium anticoagulation tube, centrifuged at 4° C. in a low temperature high speed centrifuge at 8000 rpm for 6 minutes. Plasma was separated and stored frozen in a freezer at −80° C.
(§8) Compound 5, 7, 9: 20 μl plasma was each taken and added into 100 μl of Torezolid (TR-700) solution in methanol at a concentration of 50 ng/ml, mixed under vortex for 5 minutes, centrifuged at 12000 rpm for 5 minutes; 100 μl of supernatant was taken and added into 100 μl water, mixed under vortex for 2 minutes, and analyzed by using LC-MS/MS.
(§9) Compound 2: 20 μl plasma was taken and added into 100 μl of Radezolid solution in methanol at a concentration of 50 ng/ml, mixed under vortex for 3 minutes, centrifuged at 12000 rpm for 5 minutes; 100 μl of supernatant was taken and added into 100 μl water, mixed under vortex for 2 minutes, and analyzed by using LC-MS/MS.
(§10) Compound 3: 20 μl plasma was taken and added into 800 μl of KBP-3957 methyl tert-butyl ether solution at a concentration of 10 ng/ml, mixed under vortex for 10 minutes, centrifuged at 12000 rpm for 5 minutes; 400 μl of supernatant was taken and added into a 96-well plate, purged to dryness by nitrogen, 200 μl of methanol:water (7:3) solution was added, mixed under vortex for 10 minutes, and analyzed by using LC-MS/MS.
(§11) Compound 2 is the prodrug of compound 1. Compound 5 is the prodrug of compound 4. Compound 7 is the prodrug of compound 6. Compound 9 is the prodrug of compound 8. Thus, PK data of active compounds, i.e. compounds 1, 4, 6, 8, were detected after administration, respectively.
Calculation Formula Absolute bioavailability F %=[AUC]INF(PO)*Dose(IV)/[AUC]INF(IV)*Dose(PO)

[7] = In vivo pharmacokinetics test on rat, I.V (intravenous push); details: male SD rat, 0.75 mg/kg, plasma, Compound 3 itself detected
Procedure: as §5, §6
I.V representing administration by intravenous push
as §7, §8, §9, §10, §11

Compound	antibacterial activity MSSE [1] [µg/mL]	antibacterial activity MRSA [2] [µg/mL]	antibacterial activity Streptococcus pneumoniae (streptococcus pneumoniae) [µg/mL]	antibacterial activity Enterococcus faecalis (Enterococcus faecalis) [µg/mL]	antibacterial activity MRSE [3] [µg/mL]	antibacterial activity MSSA [4] [µg/mL]	antibacterial activity Enterococcus faecium (Enterococcus faecium) [µg/mL]	antibacterial activity MSSE [5] [µg/mL]	bioavailability ([6]; P.O 1 mg/kg vs I.V 0.75 mg/kg, read-out: F % (absolute bioavailability)) [%]	AUC(0-inf) ([6]; P.O, 1 mg/kg) [ng·h/mL]	Cmax ([6]; P.O, 1 mg/kg) [ng/mL]	Tmax ([6]; P.O, 1 mg/kg) [h]	half-life ([6]; P.O, 1 mg/kg) [min]	AUC(0-inf) [7] [ng·h/mL]	clearance [7] [mL/min/kg]	half-life [7] [min]	Vd ([7]; read-out: Vss) [L/kg]
Cn1nnc(Nc2ccc(-c3ccc(N4C[C@H](CO)OC4=O)cc3F)cn2)n1 [Compound 1, (R)-3-(3-fluoro-4-(6-((2-methyl-2H-tetrazol-5-yl)amino)pyridin-3-yl)phenyl)-5-(hydroxylmethyl)oxazolidin-2-one]	0.5	1	0.5	1	0.5	1	1	–	–	–	–	–	–	–	–	–	–
CC(=O)NC[C@H]1CN(c2ccc(-c3ccc(Nc4nnn(C)n4)nc3)c(F)c2)C(=O)O1 [Compound 3, (S)-N-((3-(3-fluoro-4-(6-((2-methyl-2H-tetrazol-5-yl)amino)pyridin-3-yl)phenyl)-2-oxooxazolidin-5-yl)methyl)acetamide]	–	1	0.25	0.25	0.25	0.5	0.25	0.25	45.5	7030	614	4	333	11600	1.17	317	0.37
Cn1nnnc1Nc1ccc(-c2ccc(N3C[C@H](CO)OC3=O)cc2F)cn1 [Compound 4, (R)-3-(3-fluoro-4-(6-((1-methyl-1H-tetrazol-5-yl)amino)pyridin-3-yl)phenyl)-5-(hydroxylmethyl)oxazolidin-2-one]	0.125	0.25	1	0.25	0.125	0.25	0.25	–	–	–	–	–	–	–	–	–	–
CN(c1ccc(-c2ccc(N3C[C@H](CO)OC3=O)cc2F)cn1)c1nnnn1C [Compound 6, (R)-3-(3-fluoro-4-(6-(methyl(1-methyl-1H-tetrazol-5-yl)amino)pyridin-3-yl)phenyl)-5-(hydroxylmethyl)oxazolidin-2-one]	0.5	0.5	0.5	1	0.5	0.5	1	–	–	–	–	–	–	–	–	–	–
CN(c1ccc(-c2ccc(N3C[C@H](CO)OC3=O)cc2F)cn1)c1nnn(C)n1 [Compound 8, (R)-3-(3-fluoro-4-(6-(methyl(2-methyl-2H-tetrazol-5-yl)amino)pyridin-3-yl)phenyl)-5-(hydroxylmethyl)oxazolidin-2-one]	0.5	1	0.5	1	0.5	1	1	–	–	–	–	–	–	–	–	–	–
Cn1cc(Nc2ccc(-c3ccc(N4C[C@H](CO)OC4=O)cc3F)cn2)nn1 [Compound 11, (R)-3-(3-fluoro-4-(6-((1-methyl-1H-1,2,3-triazol-4-yl)amino)pyridin-3-yl)phenyl)-5-(hydroxylmethyl)oxazolidin-2-one]	0.5	1	1	2	1	1	2	–	–	–	–	–	–	–	–	–	–
CC(=O)NC[C@H]1CN(c2ccc(N3CCOCC3)c(F)c2)C(=O)O1 [linezolid, Linezolid, reference compound]	2	4	2	4	2	2	4	–	–	–	–	–	–	–	–	–	–
